Source: patent US20250281465A1, “MOLECULES THAT ENHANCE EXTRACELLULAR VESICLE RELEASE” (priority 2022, published 2025)
Entries after “also recorded” stand apart in the source; their conditions may differ.

Assays:
TLR4 = TLR4 agonism in murine and human HEK-TLR4 reporter cells; type: cell-based
Description: FIG. 37. TLR4 agonism assays with analogs of 2B182c in human and murine TLR4 reporter cells.

mBMDCs [1] = assay: Intracellular Ca2+ influx (Fura-2/Fura-8) in mBMDCs; type: cell-based, mouse; conditions: 10 μM, vs Veh 0.5% DMSO / #634
mBMDCs [2] = assay: Cell viability / cytotoxicity in mBMDCs (MTT); type: cell-based, mouse; conditions: mBMDCs, 10 μM, 48 hours, MTT
Protocol: FIGS. 30A-30B. […] After 48 hours incubation, cell viability was determined by MTT assay.
mBMDCs (10^5 cells/200 μL/well) were treated with 10 and 5 μM of a test compound in 96-well plates overnight. After 18 hours of drug treatment, MTT (0.5 mg/ml) was added to each well. The cells were lysed after 6-8 hours incubation, and absorbance values at 570 and 650 nm were measured. PrestoBlue reagent (#A13261, Thermo Fisher Scientific) was used for cell viability assay in CD63 HTS as described earlier.
Cell viability assay. mBMDCs (2×10^6 cells/200 μL/well in RPMI1640 supplemented with dialyzed 10% FBS, or 1.5×10^6 cells/200 μL/well in RPMI1640 supplemented with 10% exosome depleted FBS) were treated with 10 μM of each test compound in 96-well plates. After 46-48 hours of compound treatment, MTT (0.5 mg/mL) was added to each well. The cells were lysed after overnight incubation, and absorbance values at 570 and 650 nm were measured.

Compound | TLR4 agonistic activity (TLR4) | intracellular Ca^2+ influx by 634 and its SAR analogs (Fura-2) (mBMDCs [1]) | toxicity in exosome-depleted FBS medium (mBMDCs [2])
Cn1c2ccc(-c3ccco3)cc2c2nc(SCC(=O)NC3CCCCC3)n(-c3ccc(O)c(O)c3)c(=O)c21 [2E255] | completely inactive |  | 
Cn1c2ccc(-c3ccco3)cc2c2nc(SCC(=O)NC3CCCCC3)n(-c3cccc(N)c3)c(=O)c21 [2G023a] | equipotent to compound 28182c |  | 
Cn1c2ccc(-c3ccco3)cc2c2nc(SCC(=O)NC3CCCCC3)n(-c3cccc(O)c3)c(=O)c21 [2G053] | equipotent to compound 28182c |  | 
CC(=O)Oc1cccc(-n2c(SCC(=O)NC3CCCCC3)nc3c4cc(-c5ccco5)ccc4n(C)c3c2=O)c1 [2G107] | potent |  | 
CCCCCCCCC(=O)Oc1cccc(-n2c(SCC(=O)NC3CCCCC3)nc3c4cc(-c5ccco5)ccc4n(C)c3c2=O)c1 [2G108] | potent |  | 
CCCOC(=O)c1c(NS(=O)(=O)c2cccc3c2N=S=N3)sc(C)c1C [2G176, Propyl 2-(benzo[c][1,2,5]thiadiazole-4-sulfonamido)-4,5-dimethylthiophene-3-carboxylate] |  | Ca^2+ influx positive | 
Cc1sc(NS(=O)(=O)c2cccc3nsnc23)c(C(=O)OC(C)(C)C)c1C [2G179 h, Tert-butyl 2-(benzo[c][1,2,5]thiadiazole-4-sulfonamido)-4,5-dimethylthiophene-3-carboxylate] |  |  | higher toxicity
COC(=O)c1c(NS(=O)(=O)c2cccc3c2N=S=N3)sc(C)c1C [2G179a, Methyl 2-(benzo[c][1,2,5]thiadiazole-4-sulfonamido)-4,5-dimethylthiophene-3-carboxylate] |  | Ca^2+ influx positive | 
CCCCCCOC(=O)c1c(NS(=O)(=O)c2cccc3nsnc23)sc(C)c1C [2G179b, Hexyl 2-(benzo[c][1,2,5]thiadiazole-4-sulfonamido)-4,5-dimethylthiophene-3-carboxylate] |  | increased intracellular Ca^2+ levels more than that of #634 | higher toxicity
Cc1sc(NS(=O)(=O)c2cccc3c2N=S=N3)c(C(=O)OC(C)C)c1C [2G179c, Isopropyl 2-(benzo[c][1,2,5]thiadiazole-4-sulfonamido)-4,5-dimethylthiophene-3-carboxylate] |  | increased intracellular Ca^2+ levels more than that of #634; also recorded: Ca^2+ influx positive | 
Cc1sc(NS(=O)(=O)c2cccc3nsnc23)c(C(=O)OCCC(C)C)c1C [2G179d, Isopentyl 2-(benzo[c][1,2,5]thiadiazole-4-sulfonamido)-4,5-dimethylthiophene-3-carboxylate] |  | increased intracellular Ca^2+ levels more than that of #634 | higher toxicity
Cc1sc(NS(=O)(=O)c2cccc3nsnc23)c(C(=O)OC2CCCCC2)c1C [2G179e, Cyclohexyl 2-(benzo[c][1,2,5]thiadiazole-4-sulfonamido)-4,5-dimethylthiophene-3-carboxylate] |  |  | higher toxicity
Cc1sc(NS(=O)(=O)c2cccc3nsnc23)c(C(=O)OCc2ccccc2)c1C [2G179f, Benzyl 2-(benzo[c][1,2,5]thiadiazole-4-sulfonamido)-4,5-dimethylthiophene-3-carboxylate] |  |  | higher toxicity
Cc1sc(NS(=O)(=O)c2cccc3nsnc23)c(C(=O)Oc2ccccc2)c1C [2G179g, Phenyl 2-(benzo[c][1,2,5]thiadiazole-4-sulfonamido)-4,5-dimethylthiophene-3-carboxylate] |  | lost potency; also recorded: Ca^2+ influx positive | 
Cc1cc(NS(=O)(=O)c2cccc3nsnc23)sc1C [2G182] |  | loss of potency | 
